Measured values reported in publication PMC9882606, “Rationally designed inhibitors of the Musashi protein-RNA interaction by hotspot mimicry” (Research Square, 2023).

Legend:
hnRNP A1 RRM1 domain = target: T1, hnRNP A1 RRM1 domain (Homo sapiens, UniProt P09651); assay: FP competition assay with the same fluorescently-labeled RNA; format: binding
T1 construct: we expressed and purified hnRNP A1’s RRM1 domain; made in house

PC9 cells [1] = assay: CellTiter-Blue cell viability, PC9; format: cell-based, human; settings: PC9, 3 days, dose-response
Experimental: (§1) Figure 7: Cellular characterization of MSI2 inhibition by R12–8–44–3. (A) Quantification of mRNA immunoprecipitation (RIP) results. Cells were treated with 10 μM of the indicated compounds for 8 hours. After immunoprecipitation with anti-MSI2, mRNA targets were quantified. The amount of each target mRNA in the pulldown was calculated relative to the input, and results from all targets were normalized to PTP4A1. Treating cells with R12–8–44–3 disrupted the interaction with all four cognate mRNAs (PTP4A, SMAD3, EGFR, and MSI2). Data are presented as the average ± S.E.M. from at least 3 independent replicates. […] Cells were treated with indicated compounds at two concentrations (5 μM and 20 μM) for 48 hours, then protein levels of relevant MSI2 targets were determined (EGFR, SMAD3, and MSI2). One representative image is shown; quantification is presented as the average ± S.E.M. from at least 3 independent replicates, normalized first to beta-actin and then to DMSO-treated cells. (C) Cell viability dose-response quantified by CellTiter-Blue after 3 days (left) and cell proliferation with 10μM of compounds quantified by clonogenic assay after 7 days (right). […] (D) Cell viability quantified by clonogenic assay of PC9 cell line after 7-day treatment with 2 nM osimertinib (osi alone), osimertinib with 10 μM R12–8–44–3, or osimertinib with 10 μM R12-neg. […]

PC9 cells [2] = assay: CellTiter-Blue, combination with osimertinib, PC9; format: cell-based, human; settings: PC9, 3-day treatment, osimertinib with 10 μM compound vs osimertinib alone
Description: With respect to non-small cell lung cancer (NSCLC) specifically, overexpression of MSI2 has been identified as a mechanism underlying resistance to inhibitors of EGFR – and more importantly, depletion of MSI2 by RNA knockdown increased sensitivity to the third-generation EGFR inhibitor osimertinib both in vitro and in vivo [73, 74]. Despite lack of sensitivity to R12–8–44–3 alone, we therefore hypothesized that R12–8–44–3 would sensitize PC9 cells (an EGFR-mutant lung cancer cell line) to osimertinib.

[3] = tested on: EGFR, SMAD3, and MSI2 protein levels; assay: Immunoblot of MSI2 downstream targets in PC9 cells; format: cell-based, human; settings: PC9, 5 μM or 20 μM, 48 hours
Experimental: as §1

MSI1 RRM1 = target: T2, MSI1 RRM1 (Homo sapiens, UniProt O43347); assay: Fluorescence polarization (FP) competition assay with fluorescein-labeled RNA; format: binding; settings: MSI1 RRM1
T2 sequence (O43347 20-110 limits assumed): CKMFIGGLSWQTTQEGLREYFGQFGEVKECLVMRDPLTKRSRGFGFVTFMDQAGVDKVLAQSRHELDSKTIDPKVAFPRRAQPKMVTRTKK
Description: Figure 1: The hotspot mimicry approach. […] (A) The structure of the MSI1 / RNA complex. The RNA (sticks) wraps around the protein (spheres). Two adjacent bases, A106 and G107 (magenta), are buried in a shallow pocket on the protein surface. (B) An interaction map is generated from the RNA in the complex, by collecting deeply buried bases (magenta) and atoms involved in intermolecular hydrogen bonds (acceptors shown in yellow, donors in green). […] Positive values indicate diminished binding when a given base is replaced with an abasic site, showing that A106 and G107 contribute more than the other nearby bases to the binding affinity of this interaction. (E) The hotspot pharmacophore serves as a template for ligand-based screening, searching for compounds that would mimic the three-dimensional features of the pharmacophore. The screen led to the identification of compound R12, which mimics the geometry of the rings and provides three of the four desired hydrogen bonding groups. (F) R12 competes with fluorescein-labeled RNA for MSI1 binding, as observed through a fluorescence polarization assay. […] (G) Superposition of the hotspot pharmacophore back onto the protein structure illustrates the interactions that should be captured by an ideal ligand: stacking against three aromatic sidechains, and four intermolecular hydrogen bonds.
We applied our “hotspot mimicry” approach to the structure of Musashi-1 RRM1 bound to cognate RNA [54], and found a single hotspot pharmacophore derived from an adjacent pair of buried bases, Adenine106 and Guanine107 (Figure 1a). […] This pharmacophore captures both the aromatic stacking and the hydrogen bonding of the RNA hotspot through its inclusion of ring moieties and donor/acceptor positions, respectively (Figure 1c). To test whether these two particular bases indeed serve as a hotspot of the MSI1 RRM1 / RNA interaction, we used a fluorescence polarization (FP) competition assay (see Supporting Methods) to measure the binding affinity of RNA variants that maintained the backbone but lacked individual bases. […] In contrast, introduction of an abasic site at other nearby positions affected binding much less. Confirmation that A106 and G107 serve as hotspot bases of this interaction thus provided experimental evidence supporting the pharmacophore selection from our computational approach.

T1 sequence (P09651 14-97 limits assumed): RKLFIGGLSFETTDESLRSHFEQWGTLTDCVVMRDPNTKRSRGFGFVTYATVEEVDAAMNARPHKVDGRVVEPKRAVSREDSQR

inhibition of hnRNP A1 RNA binding (hnRNP A1 RRM1 domain): does not inhibit
improvement in potency over parent compound (MSI1 RRM1; FP assay): 2 fold
IC50 (MSI1 RRM1; FP competition): 9.7 µM
SMILES: Cc1cc(C(=O)OCc2nc(N)c3c(C)c(C)sc3n2)c(N)cc1F [R12–8–44–3]
cell viability (CellTiter-Blue) (PC9 cells [1]): no effect on cell growth/survival
cell viability (CellTiter-Blue) in combination with osimertinib (PC9 cells [2]): small but statistically significant decrease in cell viability
SMAD3 and EGFR protein levels [3]: phenocopied the effect of MSI2 depletion on these two targets
amount of MSI2 protein [3]: without changing the amount of MSI2
